Results as given in patent US7947854B2, “Bis-cationic compounds and use thereof” (The University of Sydney, priority 2003, dated 2011).
Several values for one entry are separate records, joined by “and”; a condition that tells them apart may be missing. Identical values can stand only once.

Legend:
[1] = system: Escherichia coli 25922; experiment: In vitro antibacterial activity, NCCLS M7-A6; assay type: cell-based
Method: (§1) Two bis-cationic compounds were tested for antibacterial activity. The assay used was that published by the National Committee for Clinical Laboratory Standards. 2003. Methods for Dilution Antimicrobial Susceptibility Tests for Bacteria That Grow Aerobically: Approved Standard—Sixth Edition. NCCLS document M7-A6. Villanova, Pa., USA.

[2] = system: Pseudomonas ariginosa 122; experiment: In vitro antibacterial activity, NCCLS M7-A6; assay type: cell-based
Method: as §1

[3] = system: Streptococcus pneumonia 49619; experiment: In vitro antibacterial activity, NCCLS M7-A6; assay type: cell-based; conditions: Streptococcus pneumoniae
Method: as §1

[4] = system: Staphylococcus aureus 25923; experiment: In vitro antibacterial activity, NCCLS M7-A6; assay type: cell-based
Method: as §1

[5] = system: VRE (Vancomycin resistant Enterococcus); experiment: In vitro antibacterial activity, NCCLS M7-A6; assay type: cell-based
Method: as §1

[6] = system: MRSA (methicillin resistant S. aureus); experiment: In vitro antibacterial activity, NCCLS M7-A6; assay type: cell-based; conditions: Staphylococcus aureus, read-out: MIC MRSA (methicillin resistant S. aureus)
Method: as §1

[7] = system: Scedosporium apiospermum 1-003-056; experiment: In vitro antifungal activity, filamentous fungi, NCCLS M38-A; assay type: cell-based; conditions: Scedosporium apiospermum, 1003056
From the text: (§2) The assay used for filamentous fungi (Aspergillus; Scedosporium; Fusarium) was that published by the National Committee for Clinical Laboratory Standards. 2002. Reference Method for Broth Dilution Antifungal Susceptibility Testing of Filamentous Fungi: Approved Standard. NCCLS document M38-A.Villanova, Pa., USA.

[8] = system: Aspergillus flavus ATCC 204 304; experiment: as above; assay type: cell-based; conditions: Aspergillus flavus, ATCC204
From the text: as §2

[9] = system: Aspergillus terreus ATCC 03-232-378; experiment: as above; assay type: cell-based; conditions: Aspergillus terreus, ATCC03
From the text: as §2

[10] = system: Scedosporium prolificans 1-003-040; experiment: as above; assay type: cell-based; conditions: Lomentospora prolificans, 1003040
From the text: as §2

[11] = system: Aspergillus fumigatus ATCC 204 305; experiment: as above; assay type: cell-based; conditions: Aspergillus fumigatus, ATCC204
From the text: as §2

[12] = system: Fusarium solani 04-132-4207; experiment: as above; assay type: cell-based; conditions: Fusarium solani, 041324207
From the text: as §2

[13] = system: C. neoformans strain H99 phospholipases; experiment: Inhibition of C. neoformans strain H99 phospholipases (all enzymes and activities); assay type: biochemical, Cryptococcus neoformans H99
Method: Radiometric assay method for phospholipases. Enzyme activities were measured as described previously in a final volume of 125 μL at 37° C. For the determination of secreted PLB activity, carrier dipalmitoyl phosphatidylcholine (DPPC, final concentration 800 μM) and 1,2-di[1-^14C] palmitoyl phosphatidylcholine (20,000 dpm) were dried under nitrogen and suspended in 125 mM imidazole acetate buffer (assay buffer, pH 4.0) by sonication using a Branson 450 sonifier. The reaction time was 22 min, using 1 μg total protein and PLB activity was determined by the rate of decrease of the radiolabelled PC substrate, with appearance of the label in free fatty acid. […] These activities were measured by the appearance of radiolabel from PC in Lyso PC, diacylglycerol and phosphatidic acid, respectively.
Secreted LPL and LPTA activities were measured simultaneously in a reaction mixture containing 1-[^14C]palmitoyl lyso-PC (25,000 dpm) and carrier lyso-PC (final concentration 200 μM) in assay buffer. The reaction time was […] with 1 μg of total protein and LPL activity was measured by the rate of loss of 1-[^14C]palmitoyl lyso-PC with release of radiolabelled fatty acids. […]
All reactions were terminated by adding 0.5 mL of chloroform:methanol (2:1 v/v). […] 37:911-917, separated by TLC and quantified as previously described. […]

SMILES | MIC [1] | MIC [2] | MIC [3] | MIC [4] | MIC [5] | MIC [6] | MIC [7] | MIC [8] | MIC [9] | MIC [10] | MIC [11] | MIC [12] | enzyme (phospholipase) inhibition, in words [13]
CCCC[N+](CCCC)(CCCC)CCCCCCCCCCCC[N+](CCCC)(CCCC)CCCC [1,12-Bis-(tributylammonium)dodecane dichloride] | 13.4 µg/mL and 22 µM | 48 µg/mL and 80 µM | 0.73 µg/mL and 1.2 µM | 3.3 µg/mL and 5.5 µM | 1.6 µg/mL and 2.7 µM | 3.3 µg/mL and 5.5 µM | 1.7 µg/mL and 2.8 µM | 13.4 µg/mL and 22 µM | 3.3 µg/mL and 5.5 µM | 3.3 µg/mL and 5.5 µM | 6.7 µg/mL and 11 µM | 3.3 µg/mL and 5.5 µM | 
CCCC[N+](CCCC)(CCCC)CCCCCCCCCCCC[N+](CCCC)(CCCC)CCCC [Compound 3, 1,12-bis(tributylammonium)do-decane dibromide] |  |  |  |  |  |  |  |  |  |  |  |  | inhibits
